From patent US9120749B2, “Quinoline derivatives and MELK inhibitors containing the same” (ONCOTHERAPY SCIENCE, INC., priority 2010, dated 2015)
Where a name gives a salt, the structure may show the parent alone.

How the values were obtained:
22Rv1 cells = experiment: Cell-based assay: anti-proliferative activity, Cell Counting Kit-8, 72 hours (22Rv1); conditions: Homo sapiens
DU4475 cells = experiment: Cell-based assay: anti-proliferative activity, Cell Counting Kit-8, 72 hours (DU4475); conditions: Homo sapiens, DU-4475
MELK = MELK (Homo sapiens, UniProt Q14680); experiment: Kinase assay: MELK activity, phosphorylation of FITC-labeled histone H3 peptide measured by IMAP fluorescence polarization; format: biochemical; conditions: MELK kinase assay, IMAP fluorescence polarization, 50 micro-M ATP; read-out: IC50 (μM) (kinase assay)
Method in brief: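 A FITC-labelled histone H3 peptide served as substrate, with compounds serially diluted to 1% DMSO final. Reactions were stopped with three volumes of IMAP progressive binding solution. After 0.5 h at room temperature, fluorescence polarization was read.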

A549 cells = experiment: Cell-based assay: anti-proliferative activity, Cell Counting Kit-8, 72 hours (A549); conditions: Homo sapiens, A549, 72 h, 72 hours
Method in brief: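 A549 cells seeded in 96-well plates and exposed to candidate inhibitors for 72 hours. Growth measured with Cell Counting Kit-8; IC50 values calculated from the dose response.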

T47D cells = experiment: Cell-based assay: anti-proliferative activity, Cell Counting Kit-8, 72 hours (T47D); conditions: Homo sapiens, T47D, 72 h
Method in brief: (§1)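 T47D, A549 and BT-549 cells, with MELK-negative HT-1197 as control (MELK status checked by western blot), seeded at 2,000–3,000 cells/well. Growth measured by CCK-8 72 hours after inhibitor exposure; IC50 values calculated.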

HT-1197 cells = experiment: Cell-based assay: anti-proliferative activity, Cell Counting Kit-8, 72 hours (HT-1197, negative control without MELK expression); conditions: Homo sapiens, HT1197, 72 h, HT1197 cells (negative control), 72 hours
Method in brief: as §1

MELK, sequence (Q14680 whole entry, looked up): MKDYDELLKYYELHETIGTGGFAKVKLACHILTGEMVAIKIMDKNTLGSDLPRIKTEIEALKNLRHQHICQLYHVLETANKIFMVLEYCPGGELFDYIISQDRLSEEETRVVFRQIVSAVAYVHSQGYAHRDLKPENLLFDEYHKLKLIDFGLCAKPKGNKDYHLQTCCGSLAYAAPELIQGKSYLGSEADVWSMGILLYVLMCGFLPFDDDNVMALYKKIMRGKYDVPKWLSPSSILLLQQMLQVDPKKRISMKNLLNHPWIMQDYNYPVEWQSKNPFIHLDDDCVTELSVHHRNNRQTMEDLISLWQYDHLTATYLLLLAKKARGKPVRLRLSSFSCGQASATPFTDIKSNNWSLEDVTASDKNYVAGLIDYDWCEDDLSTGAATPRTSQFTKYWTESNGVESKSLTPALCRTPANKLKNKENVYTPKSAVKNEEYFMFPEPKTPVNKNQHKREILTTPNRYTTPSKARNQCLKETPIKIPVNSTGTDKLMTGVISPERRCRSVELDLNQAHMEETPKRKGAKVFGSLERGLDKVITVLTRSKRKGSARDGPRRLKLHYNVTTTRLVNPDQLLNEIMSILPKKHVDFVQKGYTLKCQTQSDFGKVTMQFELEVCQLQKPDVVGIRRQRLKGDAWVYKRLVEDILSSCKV

SMILES | IC50 (22Rv1 cells) | IC50 (DU4475 cells) | IC50 (MELK) | IC50 (A549 cells) | IC50 (T47D cells) | IC50 (HT-1197 cells)
CN(C)C1CCN(c2ccc(Nc3c(S(C)(=O)=O)cnc4ccc(-c5cc(F)c(O)c(Cl)c5)cc34)cn2)C1 (stereo not drawn) [Example 889, 2-chloro-4-(4-((6-(3-(dimethylamino)pyrrolidin-1-yl)pyridin-3-yl)amino)-3-(methylsulfonyl)quinolin-6-yl)-6-fluorophenol hydrochloride] | 1.8 µM | 1.2 µM | 0.0092 µM | 2.5 µM | 1.5 µM | 12 µM
CC(=O)c1cnc2ccc(-c3ccc4cc(O)ccc4c3)cc2c1N[C@H]1CC[C@H](CN(C)C)CC1 [Example 929, 1-(4-((1R,4R)-4-((dimethylamino)methyl)cyclohexyl)amino)-6-(6-hydroxynaphthalen-2-yl)quinolin-3-yl)ethanone hydrochloride] | 0.71 µM | 2.8 µM | 0.064 µM | 0.87 µM | 3.3 µM | 3.9 µM
CC(=O)c1cnc2ccc(-c3cc(Cl)c(O)c(Cl)c3)cc2c1N[C@H]1CC[C@H](NC(=O)[C@@H]2CCCN2)CC1 [Example 920, (S)—N-((1R,4S)-4-(3-acetyl-6-(3,5-dichloro-4-hydroxyphenyl)quinolin-4-ylamino)cyclohexyl)pyrrolidine-2-carboxamide] | 0.34 µM | 0.073 µM | 0.0019 µM | 0.86 µM | 0.1 µM | 6.5 µM
CS(=O)(=O)c1cnc2ccc(-c3cc(F)c(O)c(Cl)c3)cc2c1Nc1cccc(CCN2CCCC2)c1 [Example 879, 2-chloro-6-fluoro-4-(3-(methylsulfonyl)-4-((3-(2-(pyrrolidin-1-yl)ethyl)phenyl)amino)quinolin-6-yl)phenol hydrochloride] | 3 µM | 0.9 µM | 0.011 µM | 3.8 µM | 1.1 µM | 9 µM
CC(=O)c1cnc2ccc(-c3cc(Cl)c(O)c(Cl)c3)cc2c1N[C@H]1CC[C@H](NC(=O)C(N)C(C)C)CC1 (stereo partly drawn) [Example 915] | 0.099 µM | 0.062 µM | 0.0031 µM | 0.29 µM | 0.053 µM | 3.5 µM
CS(=O)(=O)c1cnc2ccc(-c3cc(Cl)c(O)c(Cl)c3)cc2c1Nc1ccc(N2CCCC(N)C2)nc1 (stereo not drawn) [Example 913, 4-(4-(6-(3-aminopiperidin-1-yl)pyridin-3-ylamino)-3-(methylsulfonyl)quinolin-6-yl)-2,6-dichlorophenol] | 0.58 µM | 0.025 µM | 0.00094 µM | 2.6 µM | 0.27 µM | 100 µM
CC(=O)c1cnc2ccc(-c3ccc4nc[nH]c4c3)cc2c1N[C@H]1CC[C@H](CN(C)C)CC1 [Example 911, 1-(6-(1H-benzo[d]imidazol-6-yl)-4-((1R,4R)-4-((dimethylamino)methyl)cyclohexyl)amino)quinolin-3-yl) ethanone hydrochloride] | 5.4 µM | 10 µM | 0.13 µM | 3.2 µM | 10 µM | 13 µM
CC(=O)c1cnc2ccc(-c3cc(F)c(O)c(Cl)c3)cc2c1N[C@H]1CC[C@H](NC(=O)[C@@H](N)C(C)(C)C)CC1 [Example 914, (S)-N-((1r,4S)-4-((3-acetyl-6-(3-chloro-5-fluoro-4-hydroxyphenyl)quinolin-4-yl)amino)cyclohexyl)-2-amino-3,3-dimethylbutanamide hydrochloride] | 0.28 µM | 0.19 µM | 0.028 µM | 0.65 µM | 0.075 µM | 3.6 µM
[2H]C([2H])([2H])N(C[C@H]1CC[C@H](Nc2c(C(C)=O)cnc3ccc(-c4cc(Cl)c(O)c(Cl)c4)cc23)CC1)C([2H])([2H])[2H] [Example 864, 1-(6-(3,5-dichloro-4-hydroxyphenyl)-4-((trans-4-((dimethyl-d6-amino)methyl)cyclohexyl)amino)quinolin-3-yl)ethanone dihydrochloride] | 0.081 µM | 0.043 µM | 0.0011 µM | 0.11 µM | 0.067 µM | 1.3 µM
CC(=O)c1cnc2ccc(-c3cc(Cl)c(O)c(Cl)c3)cc2c1N[C@H]1CC[C@H](C(=O)N2CCN(C)CC2)CC1 [Example 898, 1-(6-(3,5-dichloro-4-hydroxyphenyl)-4-((1R,4R)-4-(4-methylpiperazine-1-carbonyl)cyclohexyl)amino) quinolin-3-yl)ethanone hydrochloride] | 0.78 µM | 0.96 µM | 0.0044 µM | 0.87 µM | 0.44 µM | 3 µM
CN1CCC(n2cc(Nc3c(C(=O)C(C)(C)C)cnc4ccc(-c5cc(F)c(O)c(Cl)c5)cc34)cn2)CC1 [Example 930, 1-(6-(3-chloro-5-fluoro-4-hydroxy-phenyl)-4-((1-(1-methylpiperidin-4-yl)-1H-pyrazol-4-yl)amino)quinolin-3-yl)-2,2-dimethylpropan-1-one hydrochloride] | 2.5 µM | 1.3 µM | 0.017 µM | 4.4 µM | 1.7 µM | 14 µM
CN1CCC(n2cc(Nc3c(S(C)(=O)=O)cnc4ccc(-c5cc(F)c(O)c(Cl)c5)cc34)cn2)CC1 [Example 900, 2-chloro-6-fluoro-4-(4-((1-(1-methyl-piperidin-4-yl)-1H-pyrazol-4-yl)amino)-3-(methylsulfonyl)quinolin-6-yl)phenol hydrochloride] | 3.1 µM | 0.54 µM | 0.0032 µM | 10 µM | 1.6 µM | 10 µM
CC(=O)c1cnc2ccc(-c3ccc4nc[nH]c4c3)cc2c1Nc1ccc(OCCN(C)C)nc1 [Example 902, 1-(6-(1H-benzo[d]imidazol-6-yl)-4-((6-(2-(dimethylamino)ethoxy)pyridin-3-yl)amino)quinolin-3-yl) ethanone hydrochloride] | 3.1 µM | 14 µM | 0.042 µM | 2.9 µM | 3.3 µM | 12 µM
CC(=O)c1cnc2ccc(-c3cc(F)c(O)c(Cl)c3)cc2c1N[C@H]1CC[C@H](NC(=O)[C@H](C)N)CC1 (stereo in doubt) [Example 878] | 0.096 µM | 0.03 µM | 0.0079 µM | 0.83 µM | 0.027 µM | 21 µM
CC(=O)c1cnc2ccc(-c3cc(Cl)c(O)c(Cl)c3)cc2c1Nc1cnc(C)c(CCN2CCCC2)c1 [Example 871, 1-(6-(3,5-dichloro-4-hydroxyphenyl)-4-((6-methyl-5-(2-(pyrrolidin-1-yl)ethyl)pyridin-3-yl)amino)quinolin-3-yl)ethanone] | 0.82 µM | 0.33 µM | 0.0028 µM | 0.4 µM | 1.8 µM | 25 µM
CN1CCC(n2cc(Nc3c(C(=O)C(C)(C)C)cnc4ccc(-c5cc(Cl)c(O)c(Cl)c5)cc34)cn2)CC1 [Example 931, 1-(6-(3,5-dichloro-4-hydroxyphenyl)-4-((1-(1-methylpiperidin-4-yl)-1H-pyrazol-4-yl)amino)quinolin-3-yl)-2,2-dimethylpropan-1-one hydrochloride] | 2.1 µM | 1.5 µM | 0.0062 µM | 1.8 µM | 1.4 µM | 100 µM
CC(N)C(=O)N[C@H]1CC[C@H](Nc2c(C(=O)C(C)(C)C)cnc3ccc(-c4cc(F)c(O)c(Cl)c4)cc23)CC1 (stereo partly drawn) [Example 932, 2-amino-N-(1R,4R)-4-((6-(3-chloro-5-fluoro-4-hydroxyphenyl)-3-pivaloyl-quinolin-4-yl)amino)cyclohexyl) propanamide hydrochloride] | 1.6 µM | 1 µM | 0.047 µM | 4.7 µM | 0.71 µM | 7.6 µM
CS(=O)(=O)c1cnc2ccc(-c3cc(Cl)c(O)c(Cl)c3)cc2c1Nc1cccc(CCN2CCCC2)c1 [Example 883, 2,6-dichloro-4-(3-(methylsulfonyl)-4-((3-(2-(pyrrolidin-1-yl)ethyl)phenyl)amino)quinolin-6-yl)phenol hydrochloride] | 1.5 µM | 0.53 µM |  | 1.9 µM | 1.4 µM | 100 µM
CC(=O)c1cnc2ccc(-c3cc(Cl)c(O)c(Cl)c3)cc2c1N[C@H]1CC[C@H](NC(=O)[C@@H](N)C(C)(C)C)CC1 [Example 922, (S)-N-((1r,4S)-4-((3-acetyl-6-(3,5-dichloro-4-hydroxyphenyl)quinolin-4-yl)amino)cyclohexyl)-2-amino-3,3-dimethylbutanamide hydrochloride] | 0.65 µM | 0.21 µM |  | 0.62 µM | 0.2 µM | 4.5 µM
CS(=O)(=O)c1cnc2ccc(-c3cc(Cl)c(O)c(Cl)c3)cc2c1N[C@H]1CC[C@H](CN2CCCC2)CC1 [Example 890, 2,6-dichloro-4-(3-(methylsulfonyl)-4-((1R,4R)-4-(pyrrolidin-1-ylmethyl)cyclohexyl)amino)quinolin-6-yl) phenol hydrochloride] | 0.94 µM | 0.35 µM |  | 1.1 µM | 1.3 µM | 3 µM
